Patent publication US20250179103A1, “6-OXODECAHYDROPYRROLO[1,2-A][1,5]DIAZOCINE AND 6-OXODECAHYDRO-4H-PYRROLO[2,1-D][1,5]THIAZOCINE DERIVATIVES AS STAT3 AND STAT6 MODULATORS FOR THE TREATMENT OF CANCER AND INFLAMMATORY CONDITIONS” (Recludix Pharma, Inc., priority 2022, published 2025)

Experiments:
[1] = target: T1, Recombinant STAT3 protein (STAT3(G127-I722)) (Homo sapiens, UniProt P40763); assay: STAT3 Fluorescence Polarization (FP) Assay; assay type: binding; settings: STAT3(G127-I722) 25 nM, probe 5-FAM-GpYLPQTV-NH2 2 nM, 45-minute incubation
T1 construct: Recombinant STAT3 protein (STAT3(G127-I722))
Procedure: STAT3 Fluorescence Polarization (FP) Assay
An FP assay was developed to determine IC50 values for test substances. Recombinant STAT3 protein (STAT3(G127-I722)) at 25 nM was combined with a fluorescently labeled, phosphotyrosine peptide probe (5-FAM-GpYLPQTV-NH2) at 2 nM in FP buffer (10 mM HEPES pH 7.4, 50 mM NaCl, 1 mM EDTA, 0.05% Tween 20.2 mM DTT). 50 μL of STAT3-probe mixture was added to serial diluted compounds in black, 96-well plates (Greiner BioOne 655076) to a final concentration of 1% DMSO. Reaction components were mixed, and FP was measured after 45-minute incubation at room temperature using a Tecan Spark multimode plate reader. FP signal (mP) was plotted against the log concentration of the test substances and IC50 values were calculated by nonlinear regression analysis using GraphPad Prism software. For STAT3 FP assay, A=≤100 nM; B=>100-1000 nM; C=>1-10 μM; and D=>10 μM.

[2] = target: T2, Recombinant STAT6 protein (STAT6(W123-T658)) (Homo sapiens, UniProt P42226); assay: STAT6 Fluorescence Polarization (FP) Assay; assay type: binding; settings: STAT6(W123-T658) 250 nM, probe 5-FAM-ApYKPFQDLI-NH2 2 nM, 45-minute incubation
T2 construct: Recombinant STAT6 protein (STAT6(W123-T658))
T2 sequence (P42226 123-658): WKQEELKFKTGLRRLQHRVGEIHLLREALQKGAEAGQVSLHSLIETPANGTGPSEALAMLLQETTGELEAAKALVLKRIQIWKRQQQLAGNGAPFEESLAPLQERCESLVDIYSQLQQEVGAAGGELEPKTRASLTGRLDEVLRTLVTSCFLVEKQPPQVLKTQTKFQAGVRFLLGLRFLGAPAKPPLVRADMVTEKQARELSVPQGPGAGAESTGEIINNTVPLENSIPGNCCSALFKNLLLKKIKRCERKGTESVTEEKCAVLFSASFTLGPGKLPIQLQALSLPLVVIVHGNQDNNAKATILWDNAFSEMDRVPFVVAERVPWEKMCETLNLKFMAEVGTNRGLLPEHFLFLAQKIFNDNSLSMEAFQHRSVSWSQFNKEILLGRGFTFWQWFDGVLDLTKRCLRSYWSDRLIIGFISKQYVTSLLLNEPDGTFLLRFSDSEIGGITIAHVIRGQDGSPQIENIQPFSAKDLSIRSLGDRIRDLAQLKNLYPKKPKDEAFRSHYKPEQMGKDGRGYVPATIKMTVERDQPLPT
Procedure: STAT6 Fluorescence Polarization (FP) Assay
An FP assay was developed to determine IC50 values for test substances. Recombinant STAT6 protein (STAT6(W123-T658)) at 250 nM was combined with a fluorescently labeled, phosphotyrosine peptide probe (5-FAM-ApYKPFQDLI-NH2) at 2 nM in FP buffer (10 mM HEPES pH 7.4, 50 mM NaCl, 1 mM EDTA, 0.05% Tween 20.2 mM DTT). 50 μL of STAT6-probe mixture was added to serial diluted compounds in black, 96-well plates (Greiner BioOne 655076) to a final concentration of 1% DMSO. Reaction components were mixed, and FP was measured after 45-minute incubation at room temperature using a Tecan Spark multimode plate reader. FP signal (mP) was plotted against the log concentration of the test substances and IC50 values were calculated by nonlinear regression analysis using GraphPad Prism software. For STAT6 FP assay, A=≤300 nM; B=>300-3000 nM; C=>3-30 μM; and D=>30 μM.

T1 sequence (P40763 127-722): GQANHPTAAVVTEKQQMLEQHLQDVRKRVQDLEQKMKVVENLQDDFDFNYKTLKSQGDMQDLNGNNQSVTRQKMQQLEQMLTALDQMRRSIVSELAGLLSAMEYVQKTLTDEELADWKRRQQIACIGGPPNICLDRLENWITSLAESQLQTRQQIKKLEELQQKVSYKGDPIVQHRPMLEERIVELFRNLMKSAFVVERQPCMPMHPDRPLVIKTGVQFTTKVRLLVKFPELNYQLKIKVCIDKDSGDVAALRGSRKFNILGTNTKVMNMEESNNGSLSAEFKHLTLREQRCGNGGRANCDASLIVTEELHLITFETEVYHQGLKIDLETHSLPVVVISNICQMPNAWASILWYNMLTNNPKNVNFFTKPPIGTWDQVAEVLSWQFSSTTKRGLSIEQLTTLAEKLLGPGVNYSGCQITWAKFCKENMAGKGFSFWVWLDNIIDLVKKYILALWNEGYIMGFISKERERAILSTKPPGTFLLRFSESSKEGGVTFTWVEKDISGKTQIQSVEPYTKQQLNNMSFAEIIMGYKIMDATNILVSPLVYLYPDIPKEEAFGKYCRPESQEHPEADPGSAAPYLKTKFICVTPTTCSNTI

Row | IC50 [1] [nM] | IC50 [2] [nM] | Structure (SMILES)
1 | ≤ 100 | 3000 to 30000 | O=C(N[C@H]1CCN(C(=O)OCc2ccccc2)C[C@H]2CC[C@@H](C(=O)N3CC(c4cccnc4)C3)N2C1=O)c1cc2cc(C(F)(F)P(=O)(O)O)ccc2s1 [Compound 214, ((2-(((5S,8S,10aR)-2-((benzyloxy)carbonyl)-6-oxo-8-(3-(pyridin-3-yl)azetidine-1-carbonyl)decahydropyrrolo[1,2-a][1,4]diazocin-5-yl)carbamoyl)benzo[b]thiophen-5-yl)difluoromethyl)phosphonic acid]
2 | > 10000 | 300 to 3000 | CC(=O)N1CC[C@H]2CC[C@@H](C(=O)N(C)c3ccccc3)N2C(=O)[C@@H](NC(=O)c2cc3cc(C(F)P(=O)(O)O)ccc3s2)C1 (stereo partly drawn) [Compound 22, ((2-(((5S,8S,10aR)-3-acetyl-8-(methyl(phenyl)carbamoyl)-6-oxodecahydropyrrolo[1,2-a][1,5]diazocin-5-yl)carbamoyl)benzo[b]thiophen-5-yl)fluoromethyl)phosphonic acid]
3 | 1000 to 10000 | 300 to 3000 | CN(C(=O)[C@@H]1CC[C@@H]2CCN(CC(F)(F)F)C[C@H](NC(=O)c3cc4cc(C(F)(F)P(=O)(O)O)ccc4[nH]3)C(=O)N21)c1ccccc1 [Compound 219, (difluoro(2-(((5S,8S,10aR)-8-(methyl(phenyl)carbamoyl)-6-oxo-3-(2,2,2-trifluoroethyl)decahydropyrrolo[1,2-a][1,5]diazocin-5-yl)carbamoyl)-1H-indol-5-yl)methyl)phosphonic acid]
4 | 1000 to 10000 | 3000 to 30000 | O=C(N[C@H]1CCNC[C@H]2CC[C@@H](C(=O)N3CC(c4cccnc4)C3)N2C1=O)c1cc2cc(C(F)(F)P(=O)(O)O)ccc2s1 [Compound 212, (difluoro(2-(((5S,8S,10aR)-6-oxo-8-(3-(pyridin-3-yl)azetidine-1-carbonyl)decahydropyrrolo[1,2-a][1,4]diazocin-5-yl)carbamoyl)benzo[b]thiophen-5-yl)methyl)phosphonic acid]
5 | 1000 to 10000 | 300 to 3000 | CC(=O)N1CC[C@H]2CC[C@@H](C(=O)N(C)c3ccccc3C#N)N2C(=O)[C@@H](NC(=O)c2cc3cc(C(F)(F)P(=O)(O)O)ccc3[nH]2)C1 [Compound 108, ((2-(((5S,8S,10aR)-3-acetyl-8-((2-cyanophenyl)(methyl)carbamoyl)-6-oxodecahydropyrrolo[1,2-a][1,5]diazocin-5-yl)carbamoyl)-1H-indol-5-yl)difluoromethyl)phosphonic acid]
6 | 1000 to 10000 | ≤ 300 | N#C[C@H]1CN(C(=O)[C@@H]2CC[C@@H]3CN(C4CCC4)CC[C@H](NC(=O)c4ccc5ccc(C(F)(F)P(=O)(O)O)cc5c4)C(=O)N32)C[C@@H]1c1ccccc1 (relative stereo) [Compound 228, ((7-(((5S,8S,10aR)-8-((rel-trans)-3-cyano-4-phenylpyrrolidine-1-carbonyl)-2-cyclobutyl-6-oxodecahydropyrrolo[1,2-a][1,4]diazocin-5-yl)carbamoyl)naphthalen-2-yl)difluoromethyl)phosphonic acid]
7 | 100 to 1000 | 300 to 3000 | COc1ccc(C2CN(C(=O)[C@@H]3CC[C@@H]4CCN(C(C)=O)C[C@H](NC(=O)c5cc6cc(C(F)(F)P(=O)(O)O)ccc6s5)C(=O)N43)C[C@@H]2C#N)cn1 (relative stereo) [Compound 147, ((2-(((5S,8S,10aR)-3-acetyl-8-((rel-trans)-3-cyano-4-(6-methoxypyridin-3-yl)pyrrolidine-1-carbonyl)-6-oxodecahydropyrrolo[1,2-a][1,5]diazocin-5-yl)carbamoyl)benzo[b]thiophen-5-yl)difluoromethyl)phosphonic acid]
8 | 1000 to 10000 | 300 to 3000 | CC(=O)N1CC[C@H]2CC[C@@H](C(=O)Nc3ccc(-c4ccccc4)cc3)N2C(=O)[C@@H](NC(=O)c2cc3cc(C(F)P(=O)(O)O)ccc3s2)C1 (stereo partly drawn) [Compound 17, ((2-(((5S,8S,10aR)-8-([1,1′-biphenyl]-4-ylcarbamoyl)-3-acetyl-6-oxodecahydropyrrolo[1,2-a][1,5]diazocin-5-yl)carbamoyl)benzo[b]thiophen-5-yl)fluoromethyl)phosphonic acid]
9 | 1000 to 10000 | 300 to 3000 | CC(=O)N1CC[C@H]2CC[C@@H](C(=O)N(C)c3cccc(C#N)c3)N2C(=O)[C@@H](NC(=O)c2cc3cc(C(F)(F)P(=O)(O)O)ccc3[nH]2)C1 [Compound 167, ((2-(((5S,8S,10aR)-3-acetyl-8-((3-cyanophenyl)(methyl)carbamoyl)-6-oxodecahydropyrrolo[1,2-a][1,5]diazocin-5-yl)carbamoyl)-1H-indol-5-yl)difluoromethyl)phosphonic acid]
10 | 100 to 1000 | ≤ 300 | CC(=O)N1CC[C@H]2CC[C@@H](C(=O)N(C)c3ccc4nnccc4c3)N2C(=O)[C@@H](NC(=O)c2cc3cc(C(F)(F)P(=O)(O)O)ccc3s2)C1 [Compound 191, ((2-(((5S,8S,10aR)-3-acetyl-8-(cinnolin-6-yl(methyl)carbamoyl)-6-oxodecahydropyrrolo[1,2-a][1,5]diazocin-5-yl)carbamoyl)benzo[b]thiophen-5-yl)difluoromethyl)phosphonic acid]
11 | ≤ 100 | 300 to 3000 | CC(=O)N1CC[C@H]2CC[C@@H](C(=O)Nc3ccc(-c4ccccc4)cc3CC(N)=O)N2C(=O)[C@@H](NC(=O)c2cc3cc(C(F)(F)P(=O)(O)O)ccc3s2)C1 [Compound 177, ((2-(((5S,8S,10aR)-3-acetyl-8-((3-(2-amino-2-oxoethyl)-[1,1′-biphenyl]-4-yl)carbamoyl)-6-oxodecahydropyrrolo[1,2-a][1,5]diazocin-5-yl)carbamoyl)benzo[b]thiophen-5-yl)difluoromethyl)phosphonic acid]
12 | 1000 to 10000 | ≤ 300 | CC(=O)N1CC[C@H]2CC[C@@H](C(=O)N(C)c3ccc(C(C)(C)C)cc3)N2C(=O)[C@@H](NC(=O)c2cc3cc(C(F)(F)P(=O)(O)O)ccc3[nH]2)C1 [Compound 136, ((2-(((5S,8S,10aR)-3-acetyl-8-((4-(tert-butyl)phenyl)(methyl)carbamoyl)-6-oxodecahydropyrrolo[1,2-a][1,5]diazocin-5-yl)carbamoyl)-1H-indol-5-yl)difluoromethyl)phosphonic acid]
13 | 1000 to 10000 | ≤ 300 | CC(=O)N1CC[C@H]2CC[C@@H](C(=O)N3CCC[C@H]3Cc3ccccc3)N2C(=O)[C@@H](NC(=O)c2cc3cc(C(F)(F)P(=O)(O)O)ccc3s2)C1 [Compound 186, ((2-(((5S,8S,10aR)-3-acetyl-8-((S)-2-benzylpyrrolidine-1-carbonyl)-6-oxodecahydropyrrolo[1,2-a][1,5]diazocin-5-yl)carbamoyl)benzo[b]thiophen-5-yl)difluoromethyl)phosphonic acid]
14 | 100 to 1000 | 300 to 3000 | CC(=O)N1CC[C@H]2CC[C@@H](C(=O)Nc3ccc(-c4ccccc4)cc3)N2C(=O)[C@@H](NC(=O)c2cc3cc(C(F)(F)P(=O)(O)O)ccc3[nH]2)C1 [Compound 58, ((2-(((5S,8S,10aR)-8-([1,1′-biphenyl]-4-ylcarbamoyl)-3-acetyl-6-oxodecahydropyrrolo[1,2-a][1,5]diazocin-5-yl)carbamoyl)-1H-indol-5-yl)difluoromethyl)phosphonic acid]
15 | 1000 to 10000 | 300 to 3000 | CC(=O)N1CC[C@H]2CC[C@@H](C(=O)N(C)c3ccc(C(C)(C)C)cc3)N2C(=O)[C@@H](NC(=O)c2cc3cc(C(F)(F)P(=O)(O)O)ccc3s2)C1 [Compound 185, ((2-(((5S,8S,10aR)-3-acetyl-8-((4-(tert-butyl)phenyl)(methyl)carbamoyl)-6-oxodecahydropyrrolo[1,2-a][1,5]diazocin-5-yl)carbamoyl)benzo[b]thiophen-5-yl)difluoromethyl)phosphonic acid]
